Assay results: BindingDB's records for doi:10.1021/np4008798 (The Chinese University of Hong Kong, 2014)

Assay: Inhibition of tyrosinase in mouse Melan-a cells assessed as decrease in L-DOPA Vmax at 60 uM by Lineweaver-Burk plot

Ki: 3.1 mM
Structure (SMILES): OC[C@H]1O[C@@H](Oc2c(O)cc(O)cc2/C=C/c2ccc(O)cc2)[C@H](O)[C@@H](O)[C@@H]1O
